Experimental data: the supplement of paper PMC10307832

Tests used:
Assay in all cases: relative viability (nuclei count vs DMSO), 5 days (fraction); higher = more cells survive
[1] = compound: N[C@@H]1CCCN(c2c(/C=C3\SC(=O)NC3=O)cccc2-c2ccccc2)C1 [AZD1208] + CC1(C)CCC(c2ccc(Cl)cc2)=C(CN2CCN(c3ccc(C(=O)NS(=O)(=O)c4ccc(N[C@H](CCN5CCOCC5)CSc5ccccc5)c(S(=O)(=O)C(F)(F)F)c4)cc3)CC2)C1 [Navitoclax] (partner 0.5 µM)
Outline: (§1)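 Relative viability was taken as the ratio of nuclei in treated wells to nuclei in vehicle wells. Lung cancer cell lines in 1536-well plates received compounds by pin tool one day after seeding, either one drug alone or a fixed anchor-drug dose plus five library-drug doses (not always all listed) in √10 steps. Nuclei were counted on 4× images after 5 days of treatment, and values are medians of duplicate plates.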

[2] = compound: N[C@@H]1CCCN(c2c(/C=C3\SC(=O)NC3=O)cccc2-c2ccccc2)C1 [AZD1208] + CC(=O)c1c(C)c2cnc(Nc3ccc(N4CCNCC4)cn3)nc2n(C2CCCC2)c1=O [Palbociclib] (partner 0.5 µM)
Outline: as §1

[3] = compound: CN1CCN(CC1)C2=CC(=C(C=C2)NC3=NC(=C(S3)C(=O)C4=C(C=CC=C4Cl)Cl)N)OC [XMD14-99] + Cc1cc(Nc2cc(N3CCN(C)CC3)nc(Sc3ccc(NC(=O)C4CC4)cc3)n2)n[nH]1 [Tozasertib] (partner 0.1 µM)
Outline: as §1

[4] = compound: N[C@@H]1CCCN(c2c(/C=C3\SC(=O)NC3=O)cccc2-c2ccccc2)C1 [AZD1208] + C[C@]1(O)C[C@@H](c2nc(-c3ccc4ccc(-c5ccccc5)nc4c3)c3c(N)nccn32)C1 [Linsitinib] (partner 1 µM)
Outline: as §1

Row | Cell Line | relative viability ([1]; first compound 0.08 µM) | relative viability ([1]; first compound 0.253 µM) | relative viability ([1]; first compound 0.8 µM) | relative viability ([1]; first compound 2.53 µM) | relative viability ([1]; first compound 8 µM) | relative viability ([2]; first compound 0.08 µM) | relative viability ([2]; first compound 0.253 µM) | relative viability ([2]; first compound 0.8 µM) | relative viability ([2]; first compound 2.53 µM) | relative viability ([2]; first compound 8 µM) | relative viability ([3]; first compound 0.08 µM) | relative viability ([3]; first compound 0.8 µM) | relative viability ([3]; first compound 2.53 µM) | relative viability ([3]; first compound 8 µM) | relative viability ([4]; first compound 0.08 µM) | relative viability ([4]; first compound 0.253 µM) | relative viability ([4]; first compound 0.8 µM) | relative viability ([4]; first compound 2.53 µM) | relative viability ([4]; first compound 8 µM)
1 | NCI-H2126 | 0.902 | 0.753 | 0.812 | 0.788 | 0.731 | 0.363 | 0.362 | 0.349 | 0.33 | 0.382 | 0.811 | 0.806 | 0.791 | 0.693 | 0.678 | 0.647 | 0.65 | 0.633 | 0.623
2 | LC-2-ad | 0.36 | 0.356 | 0.331 | 0.397 | 0.489 | 0.591 | 0.52 | 0.528 | 0.501 | 0.5 | 0.399 | 0.481 | 0.484 | 0.418 | 0.803 | 0.673 | 0.833 | 0.801 | 0.894
3 | NCI-H1915 | 0.794 | 0.797 | 0.839 | 0.832 | 0.825 | 0.504 | 0.435 | 0.486 | 0.474 | 0.455 | 0.423 | 0.42 | 0.428 | 0.386 | 1.15 | 1.09 | 1.06 | 1.1 | 1.11
4 | NCI-H1793 | 0.336 | 0.47 | 0.354 | 0.469 | 0.364 | 0.293 | 0.305 | 0.273 | 0.304 | 0.288 | 0.329 | 0.377 | 0.34 | 0.28 | 0.765 | 0.804 | 0.564 | 0.967 | 0.583
5 | NCI-H2085 | 1.02 | 1.29 | 1.13 | 1.14 | 1.02 | 0.462 | 0.473 | 0.52 | 0.482 | 0.474 | 0.752 | 0.779 | 0.716 | 0.464 | 0.913 | 1.04 | 0.892 | 0.939 | 0.946
6 | COR-L 105 | 0.679 | 0.745 | 0.555 | 1.13 | 0.682 | 0.37 | 0.344 | 0.379 | 0.38 | 0.43 | 0.295 | 0.426 | 0.33 | 0.328 | 0.985 | 0.884 | 0.972 | 0.949 | 0.939
7 | SK-LU-1 | 0.56 | 0.874 | 0.883 | 0.774 | 0.813 | 0.341 | 0.373 | 0.375 | 0.421 | 0.401 | 0.34 | 0.298 | 0.355 | 0.254 | 1 | 1.21 | 1.07 | 1.21 | 0.795
8 | LXF-289 | 0.955 | 1.01 | 0.932 | 0.978 | 1.03 | 0.587 | 0.639 | 0.583 | 0.622 | 0.635 | 0.183 | 0.205 | 0.196 | 0.171 | 0.982 | 1.01 | 0.966 | 1.01 | 1.01
9 | PC-3 [JPC-3] | 0.859 | 0.953 | 0.792 | 0.809 | 0.828 | 0.586 | 0.596 | 0.548 | 0.582 | 0.564 | 0.889 | 0.828 | 0.789 | 0.705 | 1.05 | 1.01 | 1.02 | 1.06 | 1
10 | NCI-H1666 | 0.792 | 0.802 | 0.706 | 0.801 | 0.942 | 0.62 | 0.672 | 0.607 | 0.605 | 0.672 | 0.61 | 0.582 | 0.498 | 0.537 | 0.831 | 0.677 | 0.748 | 0.671 | 0.657
11 | NCI-H2087 | 1.05 | 1.07 | 1.03 | 0.91 | 0.836 | 0.257 | 0.192 | 0.276 | 0.241 | 0.219 | 0.225 | 0.253 | 0.228 | 0.169 | 0.87 | 0.941 | 0.934 | 1 | 0.787
12 | NCI-H1734 | 0.753 | 0.932 | 0.714 | 0.724 | 0.582 | 0.312 | 0.32 | 0.313 | 0.325 | 0.255 | 0.288 | 0.244 | 0.248 | 0.227 | 0.728 | 0.807 | 0.795 | 0.791 | 0.603
13 | NCI-H2228 | 0.782 | 0.766 | 0.713 |  | 0.51 | 0.764 | 0.911 | 0.804 | 0.6 | 0.656 | 0.234 | 0.258 | 0.187 | 0.148 | 0.493 | 0.596 | 0.546 |  | 0.356
14 | EMC-BAC-2 | 1.17 | 1.39 | 1.14 | 1.17 | 1.07 | 0.518 | 0.51 | 0.504 | 0.494 | 0.432 | 0.28 | 0.249 | 0.27 | 0.254 | 0.848 | 0.818 | 0.747 | 0.815 | 0.796
